Among the data in the supplement of paper PMC6045584 are surviving fraction values, retold here.

Compound in one assay: COc1cccc2c1C(=O)c1c(O)c3c(c(O)c1C2=O)C[C@@](O)(C(=O)CO)C[C@@H]3O[C@H]1C[C@H](N)[C@H](O)[C@H](C)O1 [DOXORUBICIN]
As to the kind of experiment: surviving fraction relative to DMSO-only wells; higher = less growth inhibition. The conditions noted are these: exposure time: 5 days. The method in brief: (§1)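 Tumour cell lines in log phase were plated in 384-well plates at 250–500 cells per well, then, after 24 hours, exposed continuously for five days to inhibitors at 0.5, 1, 5, 10, 50, 100, 500 and 1000 nM. Viability came from CellTiter-Glo luminescence, and surviving fraction is that signal normalised to the median of DMSO-only wells. Plates were read after 10 minutes at room temperature, and each line, screened three times, was kept only when replicate Pearson r was >0.7 and median Z' was >0.3.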

Compound in the next assay: Nc1ncn([C@H]2C[C@H](O)[C@@H](CO)O2)c(=O)n1 [DECITABINE]
The assay is described as above. The conditions noted are these: exposure time: 5 days. Put shortly:
as §1

± gives the standard deviation of the averaged measurements.

G292 BONE: the surviving fraction is 1.03 ± 0.065 with DOXORUBICIN (0.5 nM); 1 ± 0.037 with DOXORUBICIN (1 nM); 0.816 ± 0.052 with DOXORUBICIN (5 nM); 0.601 ± 0.059 with DOXORUBICIN (10 nM); 0.388 ± 0.031 in the assay with DOXORUBICIN (50 nM); 0.338 ± 0.0043 in the assay with DOXORUBICIN (100 nM). Moreover, the surviving fraction turned out to be 0.108 ± 0.006 in the assay with DOXORUBICIN (500 nM); 0.0887 ± 0.0033 with DOXORUBICIN (1000 nM); 0.958 ± 0.057 in the assay with DECITABINE (0.5 nM); 0.953 ± 0.026 with DECITABINE (1 nM); 0.924 ± 0.037 with DECITABINE (5 nM); 0.922 ± 0.025 with DECITABINE (10 nM). Also, the surviving fraction turned out to be 0.711 ± 0.0099 with DECITABINE (50 nM), 0.678 ± 0.043 in the assay with DECITABINE (100 nM), 0.571 ± 0.039 with DECITABINE (500 nM) and 0.543 ± 0.026 in the assay with DECITABINE (1000 nM).
HCC38 BREAST: the surviving fraction in the assay with DOXORUBICIN (0.5 nM) stood at 1.23 ± 0.28; with DOXORUBICIN (1 nM), 1.19 ± 0.18; with DOXORUBICIN (5 nM), 1.1 ± 0.23; in the assay with DOXORUBICIN (10 nM) it was 0.759 ± 0.14; in the assay with DOXORUBICIN (50 nM), 0.301 ± 0.034; in the assay with DOXORUBICIN (100 nM), 0.0897 ± 0.0085. Also, the surviving fraction with DOXORUBICIN (500 nM) was 0.0433 ± 0.0025; in the assay with DOXORUBICIN (1000 nM) it was 0.044 ± 0.0079; in the assay with DECITABINE (0.5 nM), 1.37 ± 0.092; with DECITABINE (1 nM), 1.14 ± 0.13; in the assay with DECITABINE (5 nM) it was 1.13 ± 0.098; with DECITABINE (10 nM), 0.937 ± 0.044. Moreover, the surviving fraction with DECITABINE (50 nM) amounted to 0.781 ± 0.019; with DECITABINE (100 nM), 0.656 ± 0.027; in the assay with DECITABINE (500 nM) it was 0.441 ± 0.0081; with DECITABINE (1000 nM), 0.409 ± 0.064.
Regarding HCC70 BREAST, the surviving fraction with DOXORUBICIN (0.5 nM) worked out at 0.966 ± 0.06; with DOXORUBICIN (1 nM), 0.939 ± 0.021; with DOXORUBICIN (5 nM) it was 0.986 ± 0.15; with DOXORUBICIN (10 nM) it was 0.9 ± 0.13; with DOXORUBICIN (50 nM), 0.33 ± 0.013; with DOXORUBICIN (100 nM), 0.489 ± 0.045. For the same test system, the surviving fraction worked out at 0.15 ± 0.022 in the assay with DOXORUBICIN (500 nM); 0.0553 ± 0.017 with DOXORUBICIN (1000 nM); 1.07 ± 0.12 with DECITABINE (0.5 nM); 0.991 ± 0.14 with DECITABINE (1 nM); 1.1 ± 0.05 with DECITABINE (5 nM); 1.02 ± 0.092 in the assay with DECITABINE (10 nM). Also, the surviving fraction with DECITABINE (50 nM) stood at 0.967 ± 0.024; with DECITABINE (100 nM), 0.956 ± 0.087; with DECITABINE (500 nM), 0.844 ± 0.026; with DECITABINE (1000 nM) it was 0.679 ± 0.076.
Regarding HMLE3 BREAST, the surviving fraction with DOXORUBICIN (0.5 nM) stood at 0.941 ± 0.088; with DOXORUBICIN (1 nM), 1.04 ± 0.046; in the assay with DOXORUBICIN (5 nM) it was 0.744 ± 0.081; with DOXORUBICIN (10 nM), 0.405 ± 0.0065; with DOXORUBICIN (50 nM) it was 0.231 ± 0.022; in the assay with DOXORUBICIN (100 nM), 0.069 ± 0.018. In addition, the surviving fraction turned out to be 0.02 ± 0.001 with DOXORUBICIN (500 nM); 0.0223 ± 0.00058 in the assay with DOXORUBICIN (1000 nM); 1.1 ± 0.049 in the assay with DECITABINE (0.5 nM); 1.03 ± 0.082 in the assay with DECITABINE (1 nM); 1.14 ± 0.03 with DECITABINE (5 nM); 1.14 ± 0.058 with DECITABINE (10 nM). The surviving fraction came out at 0.95 ± 0.12 with DECITABINE (50 nM), 0.922 ± 0.051 in the assay with DECITABINE (100 nM), 0.605 ± 0.055 with DECITABINE (500 nM) and 0.551 ± 0.054 in the assay with DECITABINE (1000 nM).
HMT3552 BREAST: the surviving fraction with DOXORUBICIN (0.5 nM) was found to be 1.09; with DOXORUBICIN (1 nM) it was 0.911; with DOXORUBICIN (5 nM) it was 0.949; in the assay with DOXORUBICIN (10 nM) it was 0.817; with DOXORUBICIN (50 nM), 0.154; with DOXORUBICIN (100 nM) it was 0.167. The surviving fraction with DOXORUBICIN (500 nM) was found to be 0.099; in the assay with DOXORUBICIN (1000 nM), 0.027; in the assay with DECITABINE (0.5 nM), 1.06 ± 0.029; with DECITABINE (1 nM) it was 1.024 ± 0.01; in the assay with DECITABINE (5 nM), 1.09 ± 0.05; in the assay with DECITABINE (10 nM) it was 1.02 ± 0.057. For the same test system, the surviving fraction was found to be 1.27 ± 0.029 with DECITABINE (50 nM), 1.21 ± 0.037 with DECITABINE (100 nM), 1.18 ± 0.06 with DECITABINE (500 nM) and 1.14 ± 0.028 in the assay with DECITABINE (1000 nM).
Consider HS57T BREAST, for which the surviving fraction with DOXORUBICIN (0.5 nM) was 0.98 ± 0.066; with DOXORUBICIN (1 nM) it was 0.906 ± 0.1; in the assay with DOXORUBICIN (5 nM) it was 0.478 ± 0.09; with DOXORUBICIN (10 nM) it was 0.318 ± 0.015; in the assay with DOXORUBICIN (50 nM) it was 0.353 ± 0.045; with DOXORUBICIN (100 nM), 0.124 ± 0.015. The surviving fraction amounted to 0.0277 ± 0.0011 with DOXORUBICIN (500 nM); 0.0273 ± 0.0011 in the assay with DOXORUBICIN (1000 nM); 0.976 ± 0.049 with DECITABINE (0.5 nM); 0.99 ± 0.026 with DECITABINE (1 nM); 1.06 ± 0.027 with DECITABINE (5 nM); 0.972 ± 0.022 in the assay with DECITABINE (10 nM). In addition, the surviving fraction stood at 0.923 ± 0.086 with DECITABINE (50 nM), 0.904 ± 0.091 with DECITABINE (100 nM), 0.767 ± 0.045 with DECITABINE (500 nM) and 0.696 ± 0.078 with DECITABINE (1000 nM).
With HS578T BREAST, the surviving fraction was found to be 0.922 ± 0.097 with DOXORUBICIN (0.5 nM); 0.958 ± 0.092 with DOXORUBICIN (1 nM); 0.838 ± 0.1 in the assay with DOXORUBICIN (5 nM); 0.693 ± 0.013 with DOXORUBICIN (10 nM); 0.483 ± 0.046 with DOXORUBICIN (50 nM); 0.489 ± 0.066 with DOXORUBICIN (100 nM). For the same test system, the surviving fraction with DOXORUBICIN (500 nM) turned out to be 0.094 ± 0.02; in the assay with DOXORUBICIN (1000 nM), 0.037 ± 0.0079; with DECITABINE (0.5 nM), 0.882 ± 0.16; with DECITABINE (1 nM) it was 0.838 ± 0.018; with DECITABINE (5 nM), 0.812 ± 0.079; in the assay with DECITABINE (10 nM) it was 0.837 ± 0.077. For the same test system, the surviving fraction is 0.98 ± 0.071 with DECITABINE (50 nM), 0.943 ± 0.2 with DECITABINE (100 nM), 0.905 ± 0.08 with DECITABINE (500 nM) and 1.02 ± 0.064 with DECITABINE (1000 nM).
